# Experimental data: ChEMBL document CHEMBL5390237, “Discovery of Selective Histone Deacetylase 1 and 2 Inhibitors: Screening of a Focused Library Constructed by Click Chemistry, Kinetic Binding Analysis, and Biological Evaluation” (J Med Chem, 2023)
# Target: Histone deacetylase 2 (Homo sapiens, UniProt Q92769)
# Experiment: Inhibition of full-length recombinant human C-terminal GST tagged HDAC2 expressed in Sf9 insect cells using aminoluciferin peptide substrate at 100 nM preincubated for 3 hrs followed by substrate addition and measured after 30 mins by HDAC-Glo I/II chemiluminescence assay
# Conditions: time 3.5 hrs
# Chain of Histone deacetylase 2 (Q92769 whole entry): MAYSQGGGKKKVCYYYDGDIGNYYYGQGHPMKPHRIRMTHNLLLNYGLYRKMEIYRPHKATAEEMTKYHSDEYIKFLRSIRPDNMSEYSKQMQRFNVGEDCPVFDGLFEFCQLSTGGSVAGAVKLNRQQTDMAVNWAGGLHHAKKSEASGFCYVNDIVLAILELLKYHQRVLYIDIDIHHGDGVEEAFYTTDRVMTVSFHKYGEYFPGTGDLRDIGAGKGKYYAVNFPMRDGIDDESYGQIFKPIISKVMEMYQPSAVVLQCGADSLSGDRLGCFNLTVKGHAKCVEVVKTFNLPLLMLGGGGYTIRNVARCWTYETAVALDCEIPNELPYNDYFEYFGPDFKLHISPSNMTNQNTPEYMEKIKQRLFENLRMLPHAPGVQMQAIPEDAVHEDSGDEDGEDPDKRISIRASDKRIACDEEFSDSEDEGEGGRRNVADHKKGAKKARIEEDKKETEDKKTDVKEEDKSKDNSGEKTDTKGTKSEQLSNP
row,inhibition [%],Structure (SMILES)
1,13,CCc1ccc(Cn2cc(C(=O)Nc3cc(-c4cccs4)ccc3N)nn2)cc1
2,43,Nc1ccc(-c2ccsc2)cc1NC(=O)CCc1cn(CCc2ccccc2)nn1
3,24,Cc1cccc(CCn2cc(CCC(=O)Nc3cc(-c4cccs4)ccc3N)nn2)c1
4,0,Nc1ccc(-c2cccs2)cc1NC(=O)c1ccc(-c2cn(CCc3ccc(C(F)(F)F)cc3)nn2)cc1
5,0,Nc1ccc(-c2cccs2)cc1NC(=O)c1cn(-c2ccccc2-c2ccccc2)nn1
6,46,Nc1ccc(-c2cccs2)cc1NC(=O)c1ccc(-c2cn(CCc3ccc(C(=O)O)cc3)nn2)cc1
7,0,Nc1ccc(-c2cccs2)cc1NC(=O)c1cn(CCc2ccsc2)nn1
8,0,Nc1ccc(-c2cccs2)cc1NC(=O)c1ccc(-c2cn(Cc3cc4ccccc4s3)nn2)s1
9,17,Nc1ccc(-c2ccc(F)cc2)cc1NC(=O)CCc1cn(C[S+]([O-])c2ccccc2)nn1 (centres undefined)
10,0,Nc1ccc(-c2ccccc2)cc1NC(=O)CCc1cn(CCc2ccc(Cl)cc2)nn1
11,2,Nc1ccc(-c2cccs2)cc1NC(=O)c1cn(CCc2cccc(Cl)c2)nn1
12,14,Nc1ccc(-c2ccsc2)cc1NC(=O)CCc1cn(CS(=O)(=O)c2ccccc2)nn1
13,12,Nc1ccc(-c2ccc(F)cc2)cc1NC(=O)c1cn(CCc2ccc([N+](=O)[O-])cc2)nn1
14,12,Nc1ccc(-c2ccc(F)cc2)cc1NC(=O)CCc1cn(CCCc2ccccc2)nn1
15,0,Nc1ccc(-c2ccccc2)cc1NC(=O)c1cn(-c2ccc(O)cc2)nn1
16,18,Nc1ccc(-c2ccccc2)cc1NC(=O)CCc1cn(CC(=O)c2ccccc2)nn1
17,0,Nc1ccc(-c2ccc(F)cc2)cc1NC(=O)CCc1cn(CCC23CC4CC(CC(C4)C2)C3)nn1
18,0,Nc1ccc(-c2cccs2)cc1NC(=O)c1cn(-c2ccc([N+](=O)[O-])cc2)nn1
19,0,Cc1ccc(-n2cc(-c3ccc(C(=O)Nc4cc(-c5cccs5)ccc4N)s3)nn2)cc1C
20,0,Nc1ccc(-c2cccs2)cc1NC(=O)c1cccc(-c2cn(CCc3cccc(C(F)(F)F)c3)nn2)c1
21,0,Nc1ccc(-c2ccsc2)cc1NC(=O)CCc1cn(-c2ccc([N+](=O)[O-])cc2)nn1
22,0,Nc1ccc(-c2ccccc2)cc1NC(=O)c1cn(CCCCCC(=O)O)nn1
23,30,Nc1ccc(-c2cccs2)cc1NC(=O)c1cccc(-c2cn(CCCCCCC(=O)O)nn2)c1
24,10,Nc1ccc(-c2ccc(F)cc2)cc1NC(=O)c1cn(CCN2CCOCC2)nn1

row,inhibition [%],Structure (SMILES)
1,3,Nc1ccc(-c2cccs2)cc1NC(=O)CCc1cn(CCc2cccc(C(F)(F)F)c2)nn1
2,63,Nc1ccc(-c2cccs2)cc1NC(=O)c1ccc(-c2cn(Cc3nc4ccccc4[nH]3)nn2)s1
3,0,Nc1ccc(-c2ccsc2)cc1NC(=O)c1cn(-c2cccc3ccccc23)nn1
4,12,Nc1ccc(-c2ccsc2)cc1NC(=O)CCc1cn(CCc2ccccn2)nn1
5,20,Nc1ccc(-c2ccc(F)cc2)cc1NC(=O)c1cn(CCc2cccc([N+](=O)[O-])c2)nn1
6,12,Nc1ccc(-c2cccs2)cc1NC(=O)c1ccc(-c2cn(Cc3ccc4ccccc4c3)nn2)cc1
7,0,Nc1ccc(-c2cccs2)cc1NC(=O)c1cn(CCc2cccc(C(F)(F)F)c2)nn1
8,11,Nc1ccc(-c2ccc(F)cc2)cc1NC(=O)CCc1cn(CCc2cccc(C(F)(F)F)c2)nn1
9,0,Nc1ccc(-c2ccc(F)cc2)cc1NC(=O)c1cn(CCc2cccc(Cl)c2)nn1
10,16,Cc1ccc(CCn2cc(C(=O)Nc3cc(-c4cccs4)ccc3N)nn2)cc1
11,7,Nc1ccc(-c2cccs2)cc1NC(=O)c1cccc(-c2cn(CC(=O)c3ccccc3)nn2)c1
12,5,Nc1ccc(-c2ccsc2)cc1NC(=O)c1cn(CCCc2ccccc2)nn1
13,5,Nc1ccc(-c2cccs2)cc1NC(=O)c1ccc(-c2cn(CCc3ccccc3Cl)nn2)cc1
14,35,Nc1ccc(-c2cccs2)cc1NC(=O)CCc1cn(CCc2ccc(C(=O)O)cc2)nn1
15,6,Nc1ccc(-c2cccs2)cc1NC(=O)c1cccc(-c2cn(Cc3ccc4ccccc4c3)nn2)c1
16,9,Nc1ccc(-c2cccs2)cc1NC(=O)c1cccc(-c2cn(CCC34CC5CC(CC(C5)C3)C4)nn2)c1
17,0,Nc1ccc(-c2ccsc2)cc1NC(=O)CCc1cn(CC23CC4CC(CC(C4)C2)C3)nn1
18,0,Nc1ccc(-c2ccccc2)cc1NC(=O)c1cn(-c2ccc([N+](=O)[O-])cc2)nn1
19,12,Nc1ccc(-c2cccs2)cc1NC(=O)c1cn(/C=C/c2ccccc2)nn1
20,40,COc1ccc(CCn2cc(-c3ccc(C(=O)Nc4cc(-c5cccs5)ccc4N)cc3)nn2)cc1
21,0,Cc1ccccc1CCn1cc(-c2cccc(C(=O)Nc3cc(-c4cccs4)ccc3N)c2)nn1
22,0,Nc1ccc(-c2ccc(F)cc2)cc1NC(=O)CCc1cn(CCN2CCOCC2)nn1
23,20,COc1ccccc1CCn1cc(-c2ccc(C(=O)Nc3cc(-c4cccs4)ccc3N)s2)nn1
24,11,Nc1ccc(-c2ccccc2)cc1NC(=O)CCc1cn(CC(=O)Nc2ccc(F)cc2)nn1

row,inhibition [%],Structure (SMILES)
1,0,Nc1ccc(-c2ccsc2)cc1NC(=O)c1cn(CCC23CC4CC(CC(C4)C2)C3)nn1
2,0,Nc1ccc(-c2ccsc2)cc1NC(=O)CCc1cn(CCN2CCOCC2)nn1
3,2,Nc1ccc(-c2ccsc2)cc1NC(=O)CCc1cn(CCc2cccc(C(F)(F)F)c2)nn1
4,0,Nc1ccc(-c2ccc(F)cc2)cc1NC(=O)c1cn(Cc2cccc(-c3ccccc3)c2)nn1
5,0,Nc1ccc(-c2ccccc2)cc1NC(=O)c1cn(CCCCC(=O)O)nn1
6,4,Nc1ccc(-c2ccc(F)cc2)cc1NC(=O)CCc1cn(CCc2ccccc2Cl)nn1
7,10,CCc1ccc(Cn2cc(CCC(=O)Nc3cc(-c4cccs4)ccc3N)nn2)cc1
8,0,Nc1ccc(-c2ccccc2)cc1NC(=O)c1cn(CCc2ccccc2Cl)nn1
9,12,Nc1ccc(-c2ccc(F)cc2)cc1NC(=O)c1cn(CCc2ccccc2[N+](=O)[O-])nn1
10,10,COc1ccccc1CCn1cc(CCC(=O)Nc2cc(-c3ccccc3)ccc2N)nn1
11,0,Nc1ccc(-c2ccc(F)cc2)cc1NC(=O)c1cn(CCc2ccc(C(F)(F)F)cc2)nn1
12,27,Nc1ccc(-c2cccs2)cc1NC(=O)CCc1cn(CCc2cccc([N+](=O)[O-])c2)nn1
13,0,Cc1ccc(-n2cc(CCC(=O)Nc3cc(-c4ccc(F)cc4)ccc3N)nn2)cc1C
14,0,Nc1ccc(-c2cccs2)cc1NC(=O)c1ccc(-c2cn(CCC3CCCC3)nn2)s1
15,6,Nc1ccc(-c2cccs2)cc1NC(=O)c1cn(Cc2cccc(-c3ccccc3)c2)nn1
16,5,Nc1ccc(-n2cc(CCC(=O)Nc3cc(-c4cccnc4)ccc3N)nn2)cc1
17,0,Nc1ccc(-c2ccsc2)cc1NC(=O)c1cn(CCc2cccc(Cl)c2)nn1
18,0,Nc1ccc(-c2cccnc2)cc1NC(=O)CCc1cn(CCCCCCC(=O)O)nn1
19,7,Nc1ccc(-c2cccnc2)cc1NC(=O)CCc1cn(/C=C/c2ccccc2)nn1
20,0,Nc1ccc(-c2ccsc2)cc1NC(=O)c1cn(CCc2ccc(F)cc2)nn1
21,29,Nc1ccc(-c2ccc(F)cc2)cc1NC(=O)c1cn(CCCCCCCC(=O)O)nn1
22,0,Nc1ccc(-c2ccsc2)cc1NC(=O)CCc1cn(CCCCC(=O)O)nn1
23,0,Nc1ccc(-c2ccsc2)cc1NC(=O)CCc1cn(CCc2cccc3ccccc23)nn1
24,0,Cc1ccc(-n2cc(CCC(=O)Nc3cc(-c4ccsc4)ccc3N)nn2)cc1C

row,inhibition [%],Structure (SMILES)
1,0,Nc1ccc(-c2cccs2)cc1NC(=O)c1cn(-c2cccc3ccccc23)nn1
2,13,Nc1ccc(-c2ccccc2)cc1NC(=O)CCc1cn(CCc2ccc([N+](=O)[O-])cc2)nn1
3,6,COc1ccc(Cn2cc(C(=O)Nc3cc(-c4ccccc4)ccc3N)nn2)cc1
4,24,Nc1ccc(-c2cccs2)cc1NC(=O)CCc1cn(CCc2ccccc2[N+](=O)[O-])nn1
5,0,Nc1ccc(-c2cccs2)cc1NC(=O)c1ccc(-c2cn(CCC3CCCC3)nn2)cc1
6,0,Nc1ccc(-c2ccc(F)cc2)cc1NC(=O)c1cn(CCc2cccc(F)c2)nn1
7,3,Nc1ccc(-c2cccnc2)cc1NC(=O)CCc1cn(CCc2ccc(F)cc2)nn1
8,0,Nc1ccc(-c2cccnc2)cc1NC(=O)CCc1cn(C[S+]([O-])c2ccccc2)nn1 (centres undefined)
9,0,Nc1ccc(-c2ccsc2)cc1NC(=O)c1cn(CCc2cccc(F)c2)nn1
10,0,Nc1ccc(-c2ccccc2)cc1NC(=O)c1cn(CCCCCc2ccccc2)nn1
11,16,Nc1ccc(-c2cccnc2)cc1NC(=O)CCc1cn(CCCCCc2ccccc2)nn1
12,0,Nc1ccc(-c2cccnc2)cc1NC(=O)CCc1cn(CCCCCC(=O)O)nn1
13,0,Nc1ccc(-c2ccccc2)cc1NC(=O)CCc1cn(CCC2CCCC2)nn1
14,0,Nc1ccc(-c2ccc(F)cc2)cc1NC(=O)CCc1cn(CCc2ccccc2C(F)(F)F)nn1
15,2,Nc1ccc(-c2ccsc2)cc1NC(=O)CCc1cn(-c2ccccc2-c2ccccc2)nn1
16,0,Nc1ccc(-c2ccsc2)cc1NC(=O)c1cn(Cc2ccc(-c3ccccc3)cc2)nn1
17,11,Nc1ccc(-c2ccccc2)cc1NC(=O)c1cn(Cc2nc3ccccc3[nH]2)nn1
18,10,COc1ccccc1CCn1cc(CCC(=O)Nc2cc(-c3ccc(F)cc3)ccc2N)nn1
19,0,Nc1ccc(-c2ccccc2)cc1NC(=O)c1cn(CCc2cccc(-c3ccccc3)c2)nn1
20,20,Nc1ccc(-c2cccs2)cc1NC(=O)c1ccc(-c2cn(-c3ccc(O)cc3)nn2)s1
21,42,Nc1ccc(-n2cc(C(=O)Nc3cc(-c4ccc(F)cc4)ccc3N)nn2)cc1
22,18,Nc1ccc(-n2cc(CCC(=O)Nc3cc(-c4ccccc4)ccc3N)nn2)cc1
